Laboratory results taken from patent US20060089378A1 (priority 2004, published 2006).
Like-named read-outs stand apart in the source and are kept apart here.

Experiments:
CB1 receptor (human) = CB1 receptor (human) (Homo sapiens, UniProt P21554); assay: cell-based
Cannabinoid CB2 Receptor = target: T1, Cannabinoid CB2 Receptor (Homo sapiens, UniProt P34972); assay: Binding assay for CB2 agonists or inverse agonists (radioligand competition, membranes of transfected SK-N-MC cells); details: read-out: Cannabinoid CB2 Receptor Binding percent inhibition
T1 construct: expressed in transfected cells
T1 sequence (P34972 whole entry): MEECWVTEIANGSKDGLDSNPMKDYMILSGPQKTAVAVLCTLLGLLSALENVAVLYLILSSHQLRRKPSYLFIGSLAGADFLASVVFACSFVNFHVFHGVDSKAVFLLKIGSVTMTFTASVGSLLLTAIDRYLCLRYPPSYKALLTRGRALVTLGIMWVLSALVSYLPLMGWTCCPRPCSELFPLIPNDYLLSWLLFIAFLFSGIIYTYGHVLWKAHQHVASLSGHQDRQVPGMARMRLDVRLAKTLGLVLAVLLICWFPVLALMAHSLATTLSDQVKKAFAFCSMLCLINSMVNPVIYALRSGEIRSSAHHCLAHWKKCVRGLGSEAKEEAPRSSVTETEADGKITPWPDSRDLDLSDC

Cannabinoid CB1 Receptor = target: T2, Cannabinoid CB1 Receptor (Homo sapiens, UniProt P21554); assay: Binding assay for CB1 agonists or inverse agonists (radioligand competition, membranes of transfected SK-N-MC cells); details: for inhibition at 0.2 µM: read-out: Cannabinoid CB1 Receptor Binding percent inhibition
T2 construct: expressed in transfected cells
T2 sequence (P21554 whole entry): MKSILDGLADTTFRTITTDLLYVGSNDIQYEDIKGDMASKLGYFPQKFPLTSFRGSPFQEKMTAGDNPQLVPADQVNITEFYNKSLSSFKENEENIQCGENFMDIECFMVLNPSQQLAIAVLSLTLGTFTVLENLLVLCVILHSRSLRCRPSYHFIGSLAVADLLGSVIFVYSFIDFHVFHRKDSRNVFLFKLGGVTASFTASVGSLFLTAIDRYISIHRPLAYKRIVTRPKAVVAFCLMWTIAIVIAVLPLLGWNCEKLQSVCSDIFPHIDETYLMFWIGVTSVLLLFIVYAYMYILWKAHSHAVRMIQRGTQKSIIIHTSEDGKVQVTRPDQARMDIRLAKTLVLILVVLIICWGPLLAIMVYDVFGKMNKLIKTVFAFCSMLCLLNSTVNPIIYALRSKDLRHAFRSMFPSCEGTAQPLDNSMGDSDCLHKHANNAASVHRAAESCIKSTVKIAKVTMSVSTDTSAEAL

[1] = test concentration of 0.2 μM, compounds without an IC50 binding value

Sequence of CB1 receptor (human) (P21554 whole entry): as above

`COC(=O)N1C/C(=C\c2ccc(F)cc2)c2c(c(C(=O)N[C@H](C)c3ccccc3)nn2-c2ccc(Cl)cc2Cl)C1` [Cpd 1, (7E)-1-(2,4-dichloro-phenyl)-7-(4-fluoro-benzylidene)-3-[(1R)-1-phenyl-ethyl-carbamoyl]-1,4,6,7-tetrahydro-pyrazolo[4,3-c]pyridine-5-carboxylic acid methyl ester] was tested, and the EC50 (CB1 receptor (human)) was 1 nM, the inhibition at 0.2 µM (Cannabinoid CB2 Receptor) was 26% and the IC50 (Cannabinoid CB1 Receptor) was 3 nM.

`C[C@@H](NC(=O)c1nn(-c2ccc(Cl)cc2Cl)c2c1CN(C(=O)OC(C)(C)C)C/C2=C\c1ccc(F)cc1)c1ccccc1` [Cpd 2, (7E)-1-(2,4-dichloro-phenyl)-7-(4-fluoro-benzylidene)-3-[(1R)-1-phenyl-ethyl-carbamoyl]-1,4,6,7-tetrahydro-pyrazolo[4,3-c]pyridine-5-carboxylic acid tert-butyl ester] showed an EC50 (CB1 receptor (human)) of 10 nM, an inhibition at 0.2 µM (Cannabinoid CB2 Receptor) of 16% and an IC50 (Cannabinoid CB1 Receptor) of 30 nM.

`CC(=O)N1C/C(=C\c2ccc(F)cc2)c2c(c(C(=O)N[C@H](C)c3ccccc3)nn2-c2ccc(Cl)cc2Cl)C1` [Cpd 3, (7E)-5-acetyl-1-(2,4-dichloro-phenyl)-7-(4-fluoro-benzylidene)-4,5,6,7-tetrahydro-1H-pyrazolo[4,3-c]pyridine-3-carboxylic acid [(1R)-1-phenyl-ethyl]-amide] gave an EC50 (CB1 receptor (human)) of 3 nM, an inhibition at 0.2 µM (Cannabinoid CB2 Receptor) of 20% and an IC50 (Cannabinoid CB1 Receptor) of 10 nM.

In the case of `CC(=O)N1C/C(=C\c2ccc(F)cc2)c2c(c(C(=O)N[C@@H](C)C3CCCCC3)nn2-c2ccc(Cl)cc2Cl)C1` [Cpd 6, (7E)-5-acetyl-1-(2,4-dichloro-phenyl)-7-(4-fluoro-benzylidene)-4,5,6,7-tetrahydro-1H-pyrazolo[4,3-c]pyridine-3-carboxylic acid [(1S)-1-cyclohexyl-ethyl]-amide], the EC50 (CB1 receptor (human)) is reported as 30 nM, the inhibition at 0.2 µM (Cannabinoid CB2 Receptor) is reported as 14% and the IC50 (Cannabinoid CB1 Receptor) is reported as 100 nM.

Molecule `COC(=O)N1C/C(=C\c2ccc(F)cc2)c2c(c(C(=O)N[C@@H](C)C3CCCCC3)nn2-c2ccc(Cl)cc2Cl)C1` [Cpd 7, (7E)-3-[(1S)-1-cyclohexyl-ethylcarbamoyl]-1-(2,4-dichloro-phenyl)-7-(4-fluoro-benzylidene)-1,4,6,7-tetrahydro-pyrazolo[4,3-c]pyridine-5-carboxylic acid methyl ester] has an EC50 (CB1 receptor (human)) of 10 nM, an inhibition at 0.2 µM (Cannabinoid CB2 Receptor; [1]) of 13% and an IC50 (Cannabinoid CB1 Receptor) of 40 nM.

Molecule `C[C@@H](NC(=O)c1nn(-c2ccc(Cl)cc2Cl)c2c1CN(C(=O)OC(C)(C)C)C/C2=C\c1ccc(F)cc1)C1CCCCC1` [Cpd 8, (7E)-3-[(1R)-1-cyclohexyl-ethylcarbamoyl]-1-(2,4-dichloro-phenyl)-7-(4-fluoro-benzylidene)-1,4,6,7-tetrahydro-pyrazolo[4,3-c]pyridine-5-carboxylic acid tert-butyl ester] has an EC50 (CB1 receptor (human)) of 200 nM, an inhibition at 0.2 µM (Cannabinoid CB2 Receptor) of 34% and an IC50 (Cannabinoid CB1 Receptor) of 60 nM.

`CC(C)(C)OC(=O)N1C/C(=C\c2ccc(F)cc2)c2c(c(C(=O)NN3CCCCC3)nn2-c2ccc(Cl)cc2Cl)C1` [Cpd 9, (7E)-1-(2,4-dichloro-phenyl)-7-(4-fluoro-benzylidene)-3-(piperidin-1-ylcarbamoyl)-1,4,6,7-tetrahydro-pyrazolo[4,3-c]pyridine-5-carboxylic acid tert-butyl ester] was tested, and the EC50 (CB1 receptor (human)) was 20 nM, the inhibition at 0.2 µM (Cannabinoid CB2 Receptor) was 8% and the inhibition at 0.2 µM (Cannabinoid CB1 Receptor) was 55%.

`CC(=O)N1C/C(=C\c2ccc(F)cc2)c2c(c(C(=O)NN3CCCCC3)nn2-c2ccc(Cl)cc2Cl)C1` [Cpd 10, (7E)-5-acetyl-1-(2,4-dichloro-phenyl)-7-(4-fluoro-benzylidene)-4,5,6,7-tetrahydro-1H-pyrazolo[4,3-c]pyridine-3-carboxylic acid piperidin-1-ylamide] was tested, and the EC50 (CB1 receptor (human)) was 20 nM, the inhibition at 0.2 µM (Cannabinoid CB2 Receptor) was 63% and the IC50 (Cannabinoid CB1 Receptor) was 70 nM.

In the case of `CCNC(=O)N1CCc2c(c(C(=O)NC3C4(C)CCC(C4)C3(C)C)nn2C2CCCCC2)C1` (stereo not shown) [Cpd 129, 1-cyclohexyl-1,4,6,7-tetrahydro-pyrazolo[4,3-c]pyridine-3,5-dicarboxylic acid 5-ethylamide 3-[(1,3,3-trimethyl-bicyclo[2.2.1]hept-2-yl)-amide]], the “CB1 Receptor Functional Activity (change in functional activity, CRE β-gal)” value (CB1 receptor (human); one compound concentration, β-galactosidase activity relative to vehicle treated cells) is reported as 36% and the IC50 (Cannabinoid CB1 Receptor) is reported as 1000 nM.

Work on `COc1ccc(/C=C2\CN(C(=O)OC(C)(C)C)Cc3c(C(=O)N4CCCCC4)nn(-c4ccc(Cl)cc4Cl)c32)cc1` [Cpd 137, (7E)-1-(2,4-dichloro-phenyl)-7-(4-methoxy-benzylidene)-3-(piperidine-1-carbonyl)-1,4,6,7-tetrahydro-pyrazolo[4,3-c]pyridine-5-carboxylic acid tert-butyl ester] yielded an inhibition at 0.2 µM (Cannabinoid CB2 Receptor; [1]) of 42% and an inhibition at 0.2 µM (Cannabinoid CB1 Receptor; [1]) of 34%.

`COc1ccc(/C=C2\CN(C(=O)OC(C)(C)C)Cc3c(C(=O)NN4CCC(O)CC4)nn(-c4ccc(Cl)cc4Cl)c32)cc1` [Cpd 141, (7E)-1-(2,4-dichloro-phenyl)-3-(4-hydroxy-piperidin-1-ylcarbamoyl)-7-(4-methoxy-benzylidene)-1,4,6,7-tetrahydro-pyrazolo[4,3-c]pyridine-5-carboxylic acid tert-butyl ester] showed an inhibition at 0.2 µM (Cannabinoid CB2 Receptor; [1]) of 9% and an inhibition at 0.2 µM (Cannabinoid CB1 Receptor; [1]) of 6%.

For `COc1ccc(/C=C2\CNCc3c(C(=O)NN4CCC(O)CC4)nn(-c4ccc(Cl)cc4Cl)c32)cc1` [Cpd 142, (7E)-1-(2,4-dichloro-phenyl)-7-(4-methoxy-benzylidene)-4,5,6,7-tetrahydro-1H-pyrazolo[4,3-c]pyridine-3-carboxylic acid (4-hydroxy-piperidin-1-yl)-amide], the inhibition at 0.2 µM (Cannabinoid CB2 Receptor; [1]) was 0% and the inhibition at 0.2 µM (Cannabinoid CB1 Receptor; [1]) was 10%.

Molecule `CC(C)(C)OC(=O)N1C/C(=C\c2ccc(F)cc2)c2c(c(C(=O)NN3CCC(O)CC3)nn2-c2ccc(Cl)cc2Cl)C1` [Cpd 143, (7E)-1-(2,4-dichloro-phenyl)-7-(4-fluoro-benzylidene)-3-(4-hydroxy-piperidin-1-ylcarbamoyl)-1,4,6,7-tetrahydro-pyrazolo[4,3-c]pyridine-5-carboxylic acid tert-butyl ester] has an inhibition at 0.2 µM (Cannabinoid CB2 Receptor; [1]) of 0% and an inhibition at 0.2 µM (Cannabinoid CB1 Receptor; [1]) of 4%.

`COC(=O)N1C/C(=C\c2ccc(OC)cc2)c2c(c(C(=O)NN3CCC(O)CC3)nn2-c2ccc(Cl)cc2Cl)C1` [Cpd 144, (7E)-1-(2,4-dichloro-phenyl)-3-(4-hydroxy-piperidin-1-ylcarbamoyl)-7-(4-methoxy-benzylidene)-1,4,6,7-tetrahydro-pyrazolo[4,3-c]pyridine-5-carboxylic acid methyl ester] showed an inhibition at 0.2 µM (Cannabinoid CB2 Receptor; [1]) of 27% and an inhibition at 0.2 µM (Cannabinoid CB1 Receptor; [1]) of 42%.

`O=C(NN1CCC(O)CC1)c1nn(-c2ccc(Cl)cc2Cl)c2c1CNC/C2=C\c1ccc(F)cc1` [Cpd 145, (7E)-1-(2,4-dichloro-phenyl)-7-(4-fluoro-benzylidene)-4,5,6,7-tetrahydro-1H-pyrazolo[4,3-c]pyridine-3-carboxylic acid (4-hydroxy-piperidin-1-yl)-amide] showed an inhibition at 0.2 µM (Cannabinoid CB2 Receptor; [1]) of 5% and an inhibition at 0.2 µM (Cannabinoid CB1 Receptor; [1]) of 12%.

With `COC(=O)N1C/C(=C\c2ccc(F)cc2)c2c(c(C(=O)NN3CCC(O)CC3)nn2-c2ccc(Cl)cc2Cl)C1` [Cpd 146, (7E)-1-(2,4-dichloro-phenyl)-7-(4-fluoro-benzylidene)-3-(4-hydroxy-piperidin-1-ylcarbamoyl)-1,4,6,7-tetrahydro-pyrazolo[4,3-c]pyridine-5-carboxylic acid methyl ester] the inhibition at 0.2 µM (Cannabinoid CB2 Receptor; [1]) was 11% and the inhibition at 0.2 µM (Cannabinoid CB1 Receptor; [1]) was 40%.
